Read-outs that look alike come from different tables or passages of the source.
Columns and labels:
[1] = system: HCV genotype 1a replicon cell line (APC89; Huh7.5 cell background); test: HCV Genotype 1a Replicon Assay (NS3-specific protease activity readout); type: cell-based; details: Hepatitis C virus
Experimental: Assay 2: HCV Genotype 1a Replicon Assay
The HCV genotype 1a replicon cell line was obtained from Apath LLC (APC89; Huh7.5 cell background). This subgenomic replicon contains the N-terminus of the HCV core protein fused to the neomycin-resistance selectable marker. The EMCV IRES lies downstream and drives expression of the non-structural proteins NS3-NS5B. Compound potencies were determined using the NS3-specific protease activity in lysates as a measurement of compound inhibition of replicon levels.
(§1) Cells were grown at 37° C. in a 5% CO2 humidified incubator in DMEM (Invitrogen) with 10% FBS (HyClone), 1×NEAA (Invitrogen), 1× Pen-Strep (Invitrogen), and 850 μg/mL G418 (Invitrogen). On day 1 of the assay, cells were plated at 15,000 cells/well in black 96-well tissue culture plates (Costar) in 200 μL media lacking G418. Four hours later, once the cells had adhered, the media was removed and replaced with media (no G418) containing dose-responses of test compounds. Compounds were initially diluted in DMSO and then diluted another 200× in media to bring the final DMSO concentration down to 0.5%. The cells were incubated with test compounds for 48 or 72 hours. At the end of the incubation period, media and compound were removed from the plates.
To determine the NS3-specific protease activity in lysates, the cells were lysed at room temperature in 50 μL/well of 50 mM Hepes pH 7.5, 150 mM NaCl, 15% Glycerol, 0.15% Triton X-100, 10 mM DTT for 20 minutes with shaking. 50 μL of an NS3/4a protease-specific FRET substrate (Anaspec RET S1 Cat#22991) was then added to the wells at a final concentration of 15 μM. The plates were incubated at 37° C. for 20 minutes, which corresponds to a timepoint at which the protease activity is still in the linear phase. Protease activity was determined by measuring fluorescence (Excitation: 340 nm; Emission: 509 nm).
To analyze the data, the fluorescence was plotted vs. the compound concentration, and EC50 values were determined from a 4-parameter robust fit model using GraphPad Prism software.

[2] = system: HCV genotype 1b replicon cell line (APC144; Huh7 cell background); test: HCV Genotype 1b Replicon Assay (Renilla luciferase readout); type: cell-based; details: Hepatitis C virus, Huh-7; read-out: Genotype 1b (pEC50 class, HCV genotype 1b replicon assay) (converted)
Excerpt: Assay 1: HCV Genotype 1b Replicon Assay
The HCV genotype 1b replicon cell line was obtained from Apath LLC (Brooklyn, N.Y.) (APC144; Huh7 cell background). This subgenomic replicon contains the N-terminus of the HCV core protein fused to the neomycin-resistance selectable marker. The EMCV IRES lies downstream and drives expression of humanized Renilla luciferase fused to the non-structural proteins NS3-NS5B. This cell line was used to determine compound potency using the luciferase activity readout as a measurement of compound inhibition of replicon levels.
as §1, with “500” for “850”, “10,000” for “15,000”, “white” for “black”, “have” for “had”, “48” for “48 or 72”, “plates and the luciferase activity was determined using Promega Renilla-Glo reagents.” for “plates.”
To analyze the data, the luciferase activity was plotted vs. the compound concentration, and EC50 values were determined from a 4-parameter robust fit model with the GraphPad Prism software package (GraphPad Software, Inc., San Diego, Calif.). Results are expressed as the negative decadic logarithm of the EC50 value, pEC50.
Test compounds having a higher pEC50 value in this assay show greater inhibition of HCV genotype 1b replication.

[3] = 72 hour incubation, read-out: Genotype 1a (pEC50 class, HCV genotype 1a replicon assay) (converted)

COC(=O)N[C@H](C(=O)N1CCC[C@H]1c1nc(-c2ccc(-c3ccc(NC(=O)c4ccc(N5C[C@H](C)N(C(=O)[C@H]6CC6(C)C)C[C@H]5C)nc4)cc3C)c(C)c2)c[nH]1)C(C)C [Example 39, [(S)-1-((S)-2-{4-[4′-({6-[(2R,5S)-4-((S)-2,2-Dimethyl-cyclopropanecarbonyl)-2,5-dimethyl-piperazin-1-yl]-pyridine-3-carbonyl}-amino)-2,2′-dimethyl-biphenyl-4-yl]-1H-imidazol-2-yl}-pyrrolidine-1-carbonyl)-2-methyl-propyl]-carbamic acid methyl ester]
EC50 [1, 3]: < 0.1 nM | EC50 [2]: < 0.1 nM

CNC(=O)N1C[C@@H](C)N(c2ccc(C(=O)Nc3cc(OC(F)(F)F)c(-c4ccc(-c5c[nH]c([C@@H]6CCCN6C(=O)[C@@H](NC(=O)OC)C(C)C)n5)cc4)cc3Cl)cn2)C[C@@H]1C [Example 28-36]
EC50 [1, 3]: < 0.1 nM | EC50 [2]: < 0.1 nM

COC(=O)N[C@H](C(=O)N1CCC[C@H]1c1nc(-c2ccc(-c3cc(F)c(NC(=O)c4ccc(N5CCN(C(=O)c6cc[nH]n6)C[C@H]5C)nc4)cc3OC(F)(F)F)cc2)c[nH]1)C(C)C [Example 27-34]
EC50 [1, 3]: < 0.1 nM | EC50 [2]: < 0.1 nM

COC(=O)N[C@H](C(=O)N1CCC[C@H]1c1nc(-c2ccc(-c3cc(F)c(NC(=O)c4ccc(N5CCN(C(=O)c6c[nH]cn6)C[C@H]5C)nc4)cc3OC(F)(F)F)cc2)c[nH]1)C(C)C [Example 27-33]
EC50 [1, 3]: < 0.1 nM | EC50 [2]: < 0.1 nM

COC(=O)N[C@H](C(=O)N1CCC[C@H]1c1nc(-c2ccc(-c3cc(Cl)c(NC(=O)c4ccc(N5CCN(C(=O)[C@H]6CC6(C)C)C[C@H]5C)nc4)cc3C(F)(F)F)cc2)c[nH]1)C(C)C [Example 61, [(S)-1-((S)-2-{4-[5′-Chloro-4′-({6-[(R)-4-((S)-2,2-dimethyl-cyclopropanecarbonyl)-2-methyl-piperazin-1-yl]-pyridine-3-carbonyl}-amino)-2′-trifluoromethyl-biphenyl-4-yl]-1H-imidazol-2-yl}-pyrrolidine-1-carbonyl)-2-methyl-propyl]-carbamic acid methyl ester]
EC50 [1, 3]: < 0.1 nM | EC50 [2]: < 0.1 nM

COC(=O)N[C@H](C(=O)N1CCC[C@H]1c1nc(-c2ccc(-c3cc(F)c(NC(=O)c4ccc(N5C[C@H](C)N(C(=O)c6cc[nH]n6)C[C@H]5C)nc4)cc3OC(F)(F)F)cc2)c[nH]1)C(C)C [Example 60]
EC50 [1, 3]: < 0.1 nM | EC50 [2]: < 0.1 nM

COC(=O)N[C@H](C(=O)N1CCC[C@H]1c1nc(-c2ccc(-c3ccc(NC(=O)c4ccc(N5CCN(C(=O)c6c[nH]cn6)C[C@H]5C)nc4)cc3OC(F)(F)F)cc2)c[nH]1)C(C)C [Example 27]
EC50 [1, 3]: < 0.1 nM | EC50 [2]: < 0.1 nM

COC(=O)N[C@H](C(=O)N1CCC[C@H]1c1nc(-c2ccc(-c3ccc(NC(=O)c4ccc(N5C[C@H](C)N(C(=O)[C@]6(C)CCCN6C(=O)[C@@H](NC(=O)OC)C(C)C)C[C@H]5C)nc4)cc3C)c(C)c2)c[nH]1)C(C)C [Example 40]
EC50 [1, 3]: 0.1 to 1 nM | EC50 [2]: < 0.1 nM

COC(=O)N[C@H](C(=O)N1CCC[C@H]1c1nc(-c2ccc(-c3ccc(C(=O)Nc4ccc(N5CCN(C(=O)[C@]6(C)CCCN6C(=O)[C@@H](NC(=O)OC)C(C)C)C[C@H]5C)nc4)cc3OC(F)(F)F)cc2)c[nH]1)C(C)C [Example 56]
EC50 [1, 3]: 0.1 to 1 nM | EC50 [2]: < 0.1 nM

COC(=O)N[C@H](C(=O)N1CCC[C@H]1c1nc(-c2ccc(-c3ccc(NC(=O)c4ccc(N5CCN(C(=O)[C@H]6CC6(C)C)C[C@H]5C)nc4)cc3Cl)cc2)c[nH]1)C(C)C [Example 49, [(S)-1-((S)-2-{4-[2′-Chloro-4′-({6-[(R)-4-((S)-2,2-dimethyl-cyclopropanecarbonyl)-2-methyl-piperazin-1-yl]-pyridine-3-carbonyl}-amino)-biphenyl-4-yl]-1H-imidazol-2-yl}-pyrrolidine-1-carbonyl)-2-methyl-propyl]-carbamic acid methyl ester]
EC50 [1, 3]: < 0.1 nM | EC50 [2]: < 0.1 nM

COC(=O)N[C@H](C(=O)N1CCC[C@H]1c1nc(-c2ccc(-c3ccc(NC(=O)c4ccc(N5C[C@H](C)N(C(=O)c6c[nH]cn6)C[C@H]5C)nc4)cc3OC(F)(F)F)cc2)c[nH]1)C(C)C [Example 32]
EC50 [1, 3]: < 0.1 nM | EC50 [2]: < 0.1 nM

COC(=O)N[C@H](C(=O)N1CCC[C@H]1c1nc(-c2ccc(-c3ccc(NC(=O)c4ccc(N5CCN(C(=O)C6CC6)CC5)nc4)cc3)cc2)c[nH]1)C(C)C [Example 5, ((S)-1-{(S)-2-[4-(4′-{[6-(4-Cyclopropanecarbonyl-piperazin-1-yl)-pyridine-3-carbonyl]-amino}-biphenyl-4-yl)-1H-imidazol-2-yl]-pyrrolidine-1-carbonyl}-2-methyl-propyl)-carbamic acid methyl ester]
EC50 [1, 3]: 1 to 10 nM | EC50 [2]: < 0.1 nM

COC(=O)N[C@H](C(=O)N1CCC[C@H]1c1nc(-c2ccc(-c3ccc(C(=O)Nc4ccc(N5CCN(C(=O)OC(C)(C)C)CC5)cc4)cc3)cc2)c[nH]1)C(C)C [Example 6, 4-{4-[(4′-{2-[(S)-1-((S)-2-Methoxycarbonylamino-3-methyl-butyryl)-pyrrolidin-2-yl]-1H-imidazol-4-yl}-biphenyl-4-carbonyl)-amino]-phenyl}-piperazine-1-carboxylic acid tert-butyl ester]
EC50 ([1]; compounds incubated for 48 hours, read-out: Genotype 1a (pEC50 class, HCV genotype 1a replicon assay), * results (converted)): 10 to 100 nM | EC50 [2]: < 0.1 nM

CNC(=O)N1C[C@@H](C)N(c2ccc(C(=O)Nc3ccc(-c4ccc(-c5c[nH]c([C@@H]6CCCN6C(=O)[C@@H](NC(=O)OC)C(C)C)n5)cc4)c(OC(F)(F)F)c3)cn2)C[C@@H]1C [Example 29, ((S)-1-{(S)-2-[4-(4′-{[6-((2R,5S)-2,5-Dimethyl-4-methylcarbamoyl-piperazin-1-yl)-pyridine-3-carbonyl]-amino}-2′-trifluoromethoxy-biphenyl-4-yl)-1H-imidazol-2-yl]-pyrrolidine-1-carbonyl}-2-methyl-propyl)-carbamic acid methyl ester]
EC50 [1, 3]: < 0.1 nM | EC50 [2]: < 0.1 nM

COC(=O)N[C@H](C(=O)N1CCC[C@H]1c1nc(-c2ccc(-c3ccc(NC(=O)c4ccc(N5CCN(C(=O)[C@]6(C)CCCN6C(C)=O)C[C@H]5C)nc4)cc3C)cc2)c[nH]1)C(C)C [Example 15, [(S)-1-((S)-2-{5-[4′-({6-[(R)-4-((S)-1-Acetyl-2-methyl-pyrrolidine-2-carbonyl)2-methyl-piperazin-1-yl]-pyridine-3-carbonyl}-amino)-2′-methyl-biphenyl-4-yl]-1H-imidazol-2-yl}-pyrrolidine-1-carbonyl)-2-methyl-propyl]-carbamic acid methyl ester]
EC50 [1, 3]: < 0.1 nM | EC50 [2]: < 0.1 nM

COCCNC(=O)N1CCN(c2ccc(C(=O)Nc3cc(OC(F)(F)F)c(-c4ccc(-c5c[nH]c([C@@H]6CCCN6C(=O)[C@@H](NC(=O)OC)C(C)C)n5)cc4)cc3F)cn2)[C@H](C)C1 [Example 27-38]
EC50 [1, 3]: < 0.1 nM | EC50 [2]: < 0.1 nM

COC(=O)N[C@H](C(=O)N1CCC[C@H]1c1nc(-c2ccc(-c3ccc(NC(=O)c4ccc(N5CCN(C(=O)[C@H]6CC6(C)C)C[C@H]5C)nc4)cc3C(F)(F)F)cc2)c[nH]1)C(C)C [Example 34, [(S)-1-((S)-2-{5-[4′-({6-[(R)-4-((S)-2,2-Dimethyl-cyclopropanecarbonyl)-2-methyl-piperazin-1-yl]-pyridine-3-carbonyl}-amino)-2′-trifluoromethyl-biphenyl-4-yl]-1H-imidazol-2-yl}-pyrrolidine-1-carbonyl)-2-methyl-propyl]-carbamic acid methyl ester]
EC50 [1, 3]: < 0.1 nM | EC50 [2]: < 0.1 nM
